Experimental data taken from patent publication US20050256309A1, “Tri-and bi-cyclic heteroaryl histamine-3 receptor ligands” (priority 2004, published 2005).
Where a name gives a salt, the structure may show the parent alone.

`Cc1nc2cc(-c3ccc4nc(CCN5CCC[C@H]5C)ccc4c3)ccc2s1` (as salt: hydrochloride) [Example 14, 6-(2-Methyl-benzothiazol-5-yl)-2-[2-(2R-methyl-pyrrolidin-1-yl)-ethyl]-quinoline] showed a melting point of 182 to 183 °C.
